Earlier results as cited in US10427959B2, “Method and system for the autonomous self-limiting generation of chlorine dioxide” (TRUOX, INC., priority 2016, dated 2019).
Read-outs that look alike come from different tables or passages of the source.

Details: saturated aqueous solution

Row | SMILES | solubility (at 25° C.) [wt %] | solubility (at 20° C.) [wt %]
1 | CC1(C)C(=O)N(Cl)C(=O)N1Br [BCDMH, 1,3-bromo-chloro-5,5-dimethylhydantoin] | 0.2 | 
2 | CC1(C)C(=O)N(Br)C(=O)N1Br [DBDMH, 1,3-dibromo-5,5-dimethylhydantoin] |  | 0.1
